Article PMC11356900, “Synthesis, Structural Properties and Biological Activities of Novel Hydrazones of 2-, 3-, 4-Iodobenzoic Acid” (Molecules, 2024)
≈ marks a conversion by molar mass, not a printed value.

Legend:
[1] = system: Staphylococcus aureus ATCC 43300; experiment: Broth microdilution MIC/MBC; settings: ATCC43300 / MRSA
[2] = system: Bacillus cereus ATCC 10876; experiment: Broth microdilution MIC/MBC; settings: Bacillus cereus, ATCC10876
[3] = system: Staphylococcus aureus ATCC 25923; experiment: Broth microdilution MIC/MBC; settings: Staphylococcus aureus, ATCC25923
[4] = system: Staphylococcus epidermidis ATCC 12228; experiment: Broth microdilution MIC/MBC; settings: ATCC12228
[5] = system: Bacillus subtilis ATCC 6633; experiment: Broth microdilution MIC/MBC; settings: ATCC6633
[6] = system: Micrococcus luteus ATCC 10240; experiment: Broth microdilution MIC/MBC; settings: Micrococcus luteus, ATCC10240
[7] = system: Escherichia coli ATCC 25922; experiment: Broth microdilution MIC/MBC; settings: ATCC25922
Candida spp. = experiment: Broth microdilution, summary over reference yeasts; format: cell-based; settings: range over the reference Candida spp. strains
Text: (§1) Procedures of in vitro antimicrobial assays are described in Supplementary Materials.
(§2) 2. Microbiology – in vitro antimicrobial activity assays […]
(§3) using the broth microdilution method according to the European Committee on Antimicrobial Susceptibility Testing (EUCAST) and Clinical and Laboratory Standards Institute guidelines against a panel of reference and clinical or saprophytic strains of mi croorganisms, including the Gram-positive bacteria: Staphylococcus aureus ATCC 43300 (Methi-cillin Resistant S. aureus – MRSA), Staphylococcus aureus ATCC 29213 (Methicillin Susceptible S. aureus – MSSA), Staph-ylococcus epidermidis ATCC 12228, Micrococcus luteus ATCC 10240, Bacillus subtilis ATCC 6633 and Bacillus cereus ATCC 10876), Gram-negative bacteria: Bordetella bronchiseptica ATCC 4617, Escherichia coli ATCC 25922, Klebsiella pneumoniae ATCC 13883, Proteus mirabilis ATCC 12453, Salmonella typhimurium ATCC 14028 and Pseudomonas aeruginosa ATCC 9027, and fungi belonging to yeasts: Candida albicans ATCC 10231, Candida albicans ATCC 2091, Candida parapsilosis ATCC 22019, Candida glabrata ATCC 90030 and Candida krusei ATCC 14243. The microorganisms belonging to ATCC originated from American Type Culture Collection, routinely used for the evaluation of antimicrobials. All the used microbial cultures were first subcultured on nutrient agar or Sabouraud agar at 35°C for 18-24 h or 30°C for 24-48 h for bacteria […]
(§4) The surface of Mueller-Hinton agar (for bacteria) and RPMI 1640 with MOPS (for fungi) were inoculated with the suspensions of bacterial or fungal species. Microbial suspensions were prepared in sterile saline with an optical density of McFarland standard scale 0.5. The samples containing the compounds were dissolved in dimethyl sulfoxide (DMSO).
(§5) Furthermore, the bacterial and fungal suspensions put onto the Petri dishes with solid media containing 2 mg/mL of the tested compounds followed were incubated at 37°C for 24h and 30°C for 48h for bacteria and fungi, respectively.
(§6) The inhibition of microbial growth was estimated comparing with a control culture prepared without any tested sam- […]
(§7) antifungal compounds, respectively.
(§8) Subsequently, MIC (Minimal Inhibitory Concentration) of the compounds was examined by the microdilution broth method, using their two-fold dilutions in Mueller-Hinton broth (for bacteria) and RPMI 1640 broth with MOPS (for fungi) prepared in the 96-well polystyrene plates. The final concentrations of the compounds ranged from 1000 to 0.488 µg/mL. Microbial suspensions were prepared in 0.85% NaCl with an optical density of 0.5 McFarland standard. Next each bacterial or fungal suspension was added per each well containing broth and various concentrations of the exam-ined compounds. After incubation, the MIC was assessed spectrophotometrically as the lowest concentration of the […]
(§9) Appropriate DMSO, growth and sterile controls were carried out. The medium with no tested substances was used as a control The MBC (Minimal Bactericidal Concentration) and MFC (Minimal Fungicidal Concentration) are defined as the lowest concentration of the compounds that is required to kill a particular bacterial or fungal species. The MBC/MFC was determined by removing the culture used for the MIC determination from each well and spotted onto the appro-priate agar medium. The plates were incubated under appropriate conditions for bacteria and fungi. The lowest com-pounds concentration with no visible growth observed was assessed as a bactericidal/fungicidal concentration. All the experiments were repeated three times and the representative data are presented.
(§10) 1. European Committee for Antimicrobial Susceptibility Testing (EUCAST) Determination of minimum inhibitory con-centrations (MICs) of antibacterial agents by broth dilution. EUCAST discussion document E. Dis 5.1. Clin. Microbiol.
(§11) 2. Clinical and Laboratory Standards Institute. Reference method for broth dilution antifungal susceptibility testing of […]

[8] = system: Bordetella bronchiseptica ATCC 4617; experiment: Broth microdilution MIC/MBC; settings: ATCC4617
[9] = system: Pseudomonas aeruginosa ATCC 9027; experiment: Broth microdilution MIC/MBC; settings: ATCC9027
[10] = system: Salmonella typhimurium ATCC 14028; experiment: Broth microdilution MIC/MBC; settings: Salmonella enterica
[11] = system: Candida glabrata ATCC 90030; experiment: Broth microdilution MIC/MFC; format: cell-based; settings: Nakaseomyces glabratus; for MFC: ATCC90030, read-out: MFC; for MIC: ATCC90030, read-out: MIC
Text: as §1, §2, §3, §4, §5, §6, §7, §8, §9, §10, §11

[12] = system: Candida parapsilosis ATCC 22019; experiment: Broth microdilution MIC/MFC; format: cell-based; settings: Lodderomyces parapsilosis; for MFC: ATCC22019, read-out: MFC; for MIC: ATCC22019, read-out: MIC
Text: as §1, §2, §3, §4, §5, §6, §7, §8, §9, §10, §11

[13] = system: Candida albicans ATCC 2091; experiment: Broth microdilution MIC/MFC; format: cell-based; settings: for MFC: ATCC2091, read-out: MFC; for MIC: ATCC2091, read-out: MIC
Text: as §1, §2, §3, §4, §5, §6, §7, §8, §9, §10, §11

[14] = system: Candida krusei ATCC 14243; experiment: Broth microdilution MIC/MFC; format: cell-based; settings: Pichia kudriavzevii; for MFC: ATCC14243, read-out: MFC; for MIC: ATCC14243, read-out: MIC
Text: as §1, §2, §3, §4, §5, §6, §7, §8, §9, §10, §11

[15] = system: Candida albicans ATCC 10231; experiment: Broth microdilution MIC/MFC; format: cell-based; settings: for MFC: ATCC10231, read-out: MFC; for MIC: ATCC10231, read-out: MIC
Text: as §1, §2, §3, §4, §5, §6, §7, §8, §9, §10, §11

[16] = system: Proteus mirabilis ATCC 12453; experiment: Broth microdilution MIC/MBC; settings: ATCC12453
[17] = system: Staphylococcus aureus ATCC 29213; experiment: Broth microdilution MIC/MBC; settings: ATCC29213
[18] = system: Klebsiella pneumoniae ATCC 13883; experiment: Broth microdilution MIC/MBC; settings: ATCC13883
Gram-positive bacteria = experiment: Broth microdilution, summary over reference Gram-positive bacteria; format: cell-based; settings: reference Gram-positive bacteria / studied bacteria
Text: as §1, §2, §3, §4, §5, §6, §7, §8, §9, §10, §11

[19] = system: Gram-positive bacterial strains; design: method as in doi:10.14419/ijac.v5i1.7155; settings: mainly Gram-positive bacterial strains; cited from earlier work

| Structure (SMILES) | MIC [1] [µg/mL] | MIC [2] [µg/mL] | MIC [3] [µg/mL] | MIC [4] [µg/mL] | MIC [5] [µg/mL] | MIC [6] [µg/mL] | MIC [7] [µg/mL] | MFC (Candida spp.) [µg/mL] | MIC (Candida spp.) [µg/mL] | melting point [°C] | MIC [8] [µg/mL] | MIC [9] [µg/mL] | MIC [10] [µg/mL] | MFC [11] [µg/mL] | MIC [11] [µg/mL] | MFC [12] [µg/mL] | MIC [12] [µg/mL] | MFC [13] [µg/mL] | MIC [13] [µg/mL] | MFC [14] [µg/mL] | other results |
| --- | --- | --- | --- | --- | --- | --- | --- | --- | --- | --- | --- | --- | --- | --- | --- | --- | --- | --- | --- | --- | --- |
| O=C(N/N=C/c1cc(O)ccc1O)c1ccc(I)cc1 [Compound 26, N-[(2,5-dihydroxyphenyl)methylidene]-4-iodobenzohydrazide] | 1000 (≈ 2620 µM) | > 1000 | > 1000 | 1000 (≈ 2620 µM) | 500 (≈ 1310 µM) | 500 (≈ 1310 µM) | > 1000 | > 1000 | 250 to 1000 (≈ 654 to 2620 µM) | 261 to 265 | > 1000 | > 1000 | > 1000 | > 1000 | 1000 (≈ 2620 µM) | > 1000 | 250 (≈ 654 µM) | > 1000 | 1000 (≈ 2620 µM) | > 1000 | MBC [1]: > 1000 µg/mL; MBC [4]: > 1000 µg/mL; MBC [5]: > 1000 µg/mL; MBC [6]: > 1000 µg/mL; MIC [14]: 500 µg/mL (≈ 1310 µM); MFC [15]: > 1000 µg/mL; MIC [15]: 500 µg/mL (≈ 1310 µM); MIC [16]: > 1000 µg/mL; MIC [17]: > 1000 µg/mL; MIC [18]: > 1000 µg/mL |
| O=C(N/N=C/c1cc(Br)cc(Br)c1O)c1ccc(I)cc1 [Compound 28, N-[(3,5-dibromo-2-hydroxyphenyl)methylidene]-4-iodobenzohydrazide] | > 1000 | > 1000 | > 1000 | > 1000 | > 1000 | > 1000 | > 1000 | > 1000 | 250 to 1000 (≈ 477 to 1910 µM) | 210 to 211 | > 1000 | > 1000 | > 1000 | > 1000 | 1000 (≈ 1910 µM) | > 1000 | 500 (≈ 954 µM) | > 1000 | 1000 (≈ 1910 µM) | > 1000 | MIC [14]: 1000 µg/mL (≈ 1910 µM); MFC [15]: > 1000 µg/mL; MIC [15]: 500 µg/mL (≈ 954 µM); MIC [16]: > 1000 µg/mL; antibacterial activity in words (Gram-positive bacteria): No antimicrobial effect; MIC [17]: > 1000 µg/mL; MIC [18]: > 1000 µg/mL |
| O=C(NN=Cc1ccc(F)cc1)c1ccccc1 [N-(4-fluorobenzylidene)benzohydrazide] |  |  |  |  |  |  |  |  |  |  |  |  |  |  |  |  |  |  |  |  | zone of bacterial growth inhibition ZOI [19]: 6–7 mm |
